From publication PMC11763264, “Antibacterial and Antifungal Activities of Linear and Cyclic Peptides Containing Arginine, Tryptophan, and Diphenylalanine” (Antibiotics, 2025)
Converted amounts (≈) assume the structure as drawn. Non-standard residues stand in square brackets, D forms with d. Residues, ends and D or L forms follow the SMILES beside them. Dip = N[C@H](C(=O)O)C(c1ccccc1)c1ccccc1

Columns and labels:
[1] = system: MRSA (ATCC BAA-1556); assay: microbe, parasite or virus in culture; assay type: cell-based, Methicillin-Resistant Staphylococcus aureus
Experimental: (§1) The antibacterial activity of all ten synthesized linear and cyclic peptides was evaluated against MRSA (ATCC BAA-1556), S. aureus (ATCC 29213), E. faecium (ATCC 700221), S. pneumoniae (ATCC 51938), E. faecalis (ATCC 29212), B. subtilis (ATCC-6633), K. pneumoniae (ATCC BAA-1705), P. aeruginosa (ATCC 27883), and E. coli (ATCC 25922). Meropenem and daptomycin were used as positive controls for this study. Certain peptides are marked as “NT” (not tested) against specific bacterial strains based on initial screening data. […] The MIC was determined by micro-broth dilution protocol, where the minimal concentrations were determined to be in wells with no visible bacterial growth.
(§2) All bacterial experiments were carried out in a laminar flow hood (Labconco, Kansas City, MO, USA). The bacterial strains were cultured following the guidelines set by the Clinical Laboratory Standards Institute (CLSI). Antibacterial assays were performed using a standard microtiter dilution method as described in previous studies. The minimum inhibitory concentration (MIC) refers to the lowest peptide concentration that inhibits bacterial growth in wells with no visible bacterial growth. MIC was determined by micro-broth dilution. Bacteria were cultured overnight in 6 mL of Luria Broth (LB). A stock solution of the peptide was prepared in water and DMSO, and a test compound solution with a concentration of 256 µg/mL was made in LB. Meropenem, with a solubility of 8 mg/mL, was prepared as a stock solution at 4 mg/500 µL. An aliquot of the overnight bacteria culture was diluted in normal saline (NS, 1 mL) until achieving a 0.5 McFarland turbidity (1.5 × 10^8 bacterial cell CFU/mL). A 0.5 McFarland compared solution (60 µL) was added to Mueller Hinton Broth (MH) 8940 µL to generate a 1/150 dilution. A 200 µL test compound solution was added to the first well of a 96-well plate, and the remaining wells (2–12) were filled with 100 µL of MH media using a multi-channel pipette from a sterile reservoir. A concentration of […] of the tested peptides was prepared from a stock solution of the samples for testing in Muller−Hinton broth MH media. Peptides stock solution was dissolved in 5% DMSO in water, and the final concentration of DMSO in the first well of assay plate was 2.5% DMSO/H2O and diluted across the assay plate.
(§3) A 100 µL sample from well 1 was pipetted into well 2, and the solution was mixed thoroughly by pipetting up and down. Next, 100 µL was transferred from well 2 to well 3, followed by thorough mixing. This 2-fold serial dilution process continued through well 11, with no additions made to well 12. The final 100 µL from well 11 was discarded. After completing the serial dilution, each well (1–12) contained 100 µL of solution. The bacterial culture in MH media was vortexed and transferred to a sterile reservoir, from which 100 µL was added to each well using a 12-channel pipette. (Note: The dilutions were further diluted upon adding the bacterial solution; for example, the concentration in well 1 started at […] after the addition of the bacterial culture.) The plates were incubated overnight at 37 °C for 24 h. All experiments were performed in triplicate and repeated twice, with controls consisting of bacteria in MH media and positive controls of daptomycin or meropenem.

[2] = system: S. aureus (ATCC 29213); assay: microbe, parasite or virus in culture; assay type: cell-based, Staphylococcus aureus
Experimental: as §1, §2, §3

[3] = system: E. faecium (ATCC 700221); assay: microbe, parasite or virus in culture; assay type: cell-based, Enterococcus faecium
Experimental: as §1, §2, §3

[4] = system: S. pneumoniae (ATCC 51938); assay: microbe, parasite or virus in culture; assay type: cell-based, Streptococcus pneumoniae
Experimental: as §1, §2, §3

[5] = system: E. faecalis (ATCC 29212); assay: microbe, parasite or virus in culture; assay type: cell-based, Enterococcus faecalis
Experimental: as §1, §2, §3

[6] = system: B. subtilis (ATCC-6633); assay: microbe, parasite or virus in culture; assay type: cell-based, Bacillus subtilis
Experimental: as §1, §2, §3

[7] = system: K. pneumoniae (ATCC BAA-1705); assay: microbe, parasite or virus in culture; assay type: cell-based, Klebsiella pneumoniae
Experimental: as §1, §2, §3

[8] = system: P. aeruginosa (ATCC 27883); assay: microbe, parasite or virus in culture; assay type: cell-based, Pseudomonas aeruginosa
Experimental: as §1, §2, §3

[9] = system: E. coli (ATCC 25922); assay: microbe, parasite or virus in culture; assay type: cell-based, Escherichia coli
Experimental: as §1, §2, §3

[10] = system: C. albicans (ATCC 60193); assay: microbe, parasite or virus in culture; assay type: cell-based, Candida albicans; conditions: ATCC 60193, 24 h
Experimental: (§4) The antifungal activity of all ten synthesized linear and cyclic peptides was evaluated against C. albicans (ATCC 60193), C. parapsilosis (ATCC 22019), and A. fumigatus (AF-293). Fluconazole and amphotericin B were used as positive controls for this study. The MIC was determined at concentrations in wells with no visible fungal growth.
(§5) In this study, C. albicans and C. parapsilosis were cultured on Yeast Peptone Dextrose (YPD) agar containing 1% w/v yeast extract, 2% w/v peptone, 2% w/v D-glucose, and 1.5% agar. A single colony from the agar was selected and cultured in Tryptone soy broth supplemented with 0.1% D-glucose, then incubated for 24 h at 37 °C. The cells were washed twice with PBS by centrifugation at 2000 RPM for 5 min. The pellet was resuspended in 5 mL of PBS, diluted in RPMI 1640 with L-glutamine, supplemented with 2% D-glucose, and the pH adjusted using HEPES buffer. The suspension was then incubated for 50 min at 35 °C to achieve a final cell concentration of 10^6 cells/mL.
(§6) Peptide concentrations of 50, 25, 12.5, 6.25, and 3.1 μg/mL were tested in triplicate and repeated twice. Each well of a 96-well plate was inoculated with the prepared inoculum suspension, which was diluted with RPMI media to a final volume of 200 μL per well. The control well received the same inoculum without any compound. The plates were incubated for 24 h at 37 °C. Fungal and microbial growth were visually observed in the control wells, and the minimum inhibitory concentration (MIC) was determined as the lowest concentration at which no growth was detected in the wells. Amphotericin B was used as a standard antifungal drug.

[11] = system: C. parapsilosis (ATCC 22019); assay: microbe, parasite or virus in culture; assay type: cell-based, Candida parapsilosis; conditions: ATCC 22019, 24 h
Experimental: as §4, §5, §6

[12] = system: MRSA; conditions: previous work; cited from earlier work
Source text: We have previously reported the synthesis of [E4W4], [KR5], [F4R5], [Y4R4], and [R4W4] and tested them against bacterial pathogens.

Molecule | MIC ([1]; ATCC BAA-1556, 24 h) [µM] | MIC ([2]; ATCC 29213, 24 h) [µM] | MIC ([3]; ATCC 700221, 24 h) [µM] | MIC ([4]; ATCC 51938, 24 h) [µM] | MIC ([5]; ATCC 29212, 24 h) [µM] | MIC ([6]; ATCC-6633, 24 h) [µM] | MIC ([7]; ATCC BAA-1705, 24 h) [µM] | MIC ([8]; ATCC 27883, 24 h) [µM] | MIC ([9]; ATCC 25922, 24 h) [µM] | MIC [10] [µM] | MIC [11] [µM] | also measured
N=C(N)NCCC[C@H](NC(=O)[C@@H](NC(=O)[C@H](CCCNC(=N)N)NC(=O)[C@H](Cc1c[nH]c2ccccc12)NC(=O)[C@H](CCCNC(=N)N)NC(=O)[C@H](Cc1c[nH]c2ccccc12)NC(=O)[C@H](CCCNC(=N)N)NC(=O)[C@H](Cc1c[nH]c2ccccc12)NC(=O)[C@H](CCCNC(=N)N)NC(=O)[C@@H](N)Cc1c[nH]c2ccccc12)C(c1ccccc1)c1ccccc1)C(=O)O [((DipR)(WR)4)] (H-WRWRWRWR[Dip]R-OH) | 6.3 (≈ 11.1 µg/mL) | 6.3 (≈ 11.1 µg/mL) | 3.1 (≈ 5.48 µg/mL) | 0.78 (≈ 1.38 µg/mL) | 12.5 (≈ 22.1 µg/mL) | 3.1 (≈ 5.48 µg/mL) | 12.5 (≈ 22.1 µg/mL) | 25 (≈ 44.2 µg/mL) | 12.5 (≈ 22.1 µg/mL) | 28.2 (≈ 49.8 µg/mL) | 14.1 (≈ 24.9 µg/mL) | 
N=C(N)NCCC[C@H](NC(=O)[C@H](CCCNC(=N)N)NC(=O)[C@@H](NC(=O)[C@H](CCCNC(=N)N)NC(=O)[C@@H](NC(=O)[C@H](CCCNC(=N)N)NC(=O)[C@@H](NC(=O)[C@H](CCCNC(=N)N)NC(=O)[C@@H](N)C(c1ccccc1)c1ccccc1)C(c1ccccc1)c1ccccc1)C(c1ccccc1)c1ccccc1)C(c1ccccc1)c1ccccc1)C(=O)O [(DipR)4R] (H-[Dip]R[Dip]R[Dip]R[Dip]RR-OH) | 1.6 (≈ 2.71 µg/mL) | 1.6 (≈ 2.71 µg/mL) | 1.6 (≈ 2.71 µg/mL) | 0.39 (≈ 0.66 µg/mL) | 3.1 (≈ 5.25 µg/mL) | 1.6 (≈ 2.71 µg/mL) | 6.3 (≈ 10.7 µg/mL) | 12.5 (≈ 21.2 µg/mL) | 6.3 (≈ 10.7 µg/mL) | 7.4 (≈ 12.5 µg/mL) | 7.4 (≈ 12.5 µg/mL) | 
C[C@@H](O)[C@H]1C(=O)N2C(C(=O)O)=C(S[C@@H]3CN[C@H](C(=O)N(C)C)C3)[C@H](C)[C@H]12 [Meropenem, reference compound] |  |  |  |  |  |  |  |  |  |  |  | MIC ([1]; Staphylococcus aureus, micro-broth dilution, Mueller Hinton broth, 37 °C, 24 h, no visible growth, triplicate, repeated twice): 5.2 µM (≈ 1.99 µg/mL); MIC ([2]; Staphylococcus aureus, ATCC29213, micro-broth dilution, Mueller Hinton broth, 37 °C, 24 h, no visible growth, triplicate, repeated twice): 0.5 µM (≈ 0.192 µg/mL); MIC ([3]; Enterococcus faecium, ATCC700221, micro-broth dilution, Mueller Hinton broth, 37 °C, 24 h, no visible growth, triplicate, repeated twice): 83 µM (≈ 31.8 µg/mL); MIC ([4]; Streptococcus pneumoniae, ATCC51938, micro-broth dilution, Mueller Hinton broth, 37 °C, 24 h, no visible growth, triplicate, repeated twice): 0.6 µM (≈ 0.23 µg/mL); MIC ([5]; Enterococcus faecalis, ATCC29212, micro-broth dilution, Mueller Hinton broth, 37 °C, 24 h, no visible growth, triplicate, repeated twice): 5.2 µM (≈ 1.99 µg/mL); MIC ([6]; Bacillus subtilis, ATCC6633, micro-broth dilution, Mueller Hinton broth, 37 °C, 24 h, no visible growth, triplicate, repeated twice): 0.6 µM (≈ 0.23 µg/mL); MIC ([7]; Klebsiella pneumoniae, ATCCBAA1705, micro-broth dilution, Mueller Hinton broth, 37 °C, 24 h, no visible growth, triplicate, repeated twice, NA = Not active): 42 µM (≈ 16.1 µg/mL); MIC ([8]; Pseudomonas aeruginosa, ATCC27883, micro-broth dilution, Mueller Hinton broth, 37 °C, 24 h, no visible growth, triplicate, repeated twice, NA = Not active): 2.6 µM (≈ 0.997 µg/mL); MIC ([9]; Escherichia coli, ATCC25922, micro-broth dilution, Mueller Hinton broth, 37 °C, 24 h, no visible growth, triplicate, repeated twice, NA = Not active): 2.6 µM (≈ 0.997 µg/mL)
[R4W4] |  |  |  |  |  |  |  |  |  |  |  | MIC against MRSA [12]: 2.67 µg/mL
